According to patent publication US20250340551A1, “SMALL MOLECULE MODULATORS OF STAT6” (Gilead Sciences, Inc., priority 2024, published 2025):

Assays:
[1] = test system: Eotaxin-3 (CCL26) release in human whole blood stimulated with IL-4; test: Human whole blood eotaxin-3 assay (IL-4 stimulated, Eotaxin-3 release); assay type: cell-based; details: for Emax: 48 h
Summary of the method: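 Lithium-heparin blood preincubated 2 h at 37° C with 4-fold compound dilutions (0.5% DMSO, triplicates), then stimulated with 400 pM recombinant human IL-4 for 48 h. Eotaxin-3 in plasma supernatant measured by MSD immunoassay.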

[2] = target: human STAT6 (Homo sapiens (Human), UniProt P42226); test: Surface plasmon resonance assay (Biacore 8K, binding to immobilized STAT6); details: human STAT6 aa122-658, N-terminal His-tag, CM5 chip, 25° C.; geometric mean; read-out: STAT6 SPR Kd
Summary of the method: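 Run at 25° C with His-tagged STAT6 aa122-658 (insect-cell expressed) amine-coupled to a CM5 chip, reference-subtracted, in PBS-P+ with 2% DMSO. Multi-cycle kinetics: 60 sec. contact, up to 300 sec. dissociation. Affinity fitted from late report-point binding isotherms, with Rmax both free and fixed to theoretical 1:1.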

Chain of human STAT6 (P42226 122-658): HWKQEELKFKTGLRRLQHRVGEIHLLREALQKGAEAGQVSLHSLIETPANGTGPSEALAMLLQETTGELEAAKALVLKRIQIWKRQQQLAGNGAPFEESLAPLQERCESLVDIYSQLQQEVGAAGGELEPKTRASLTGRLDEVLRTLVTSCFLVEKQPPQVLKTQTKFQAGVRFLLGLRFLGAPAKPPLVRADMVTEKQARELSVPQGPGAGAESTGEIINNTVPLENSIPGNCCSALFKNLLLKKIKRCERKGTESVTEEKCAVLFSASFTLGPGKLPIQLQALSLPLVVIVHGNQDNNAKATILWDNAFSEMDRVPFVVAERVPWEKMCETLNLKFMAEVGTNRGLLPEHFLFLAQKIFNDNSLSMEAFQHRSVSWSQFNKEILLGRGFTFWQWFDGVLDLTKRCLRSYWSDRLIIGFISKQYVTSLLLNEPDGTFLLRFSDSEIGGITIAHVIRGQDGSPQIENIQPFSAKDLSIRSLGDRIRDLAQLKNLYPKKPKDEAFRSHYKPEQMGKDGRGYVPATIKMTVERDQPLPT

Row | Compound | Kd [2] [nM] | EC50 ([1]; Homo sapiens, Hec50, 48 h) [nM] | also measured
1 | 4-[1-[[4-(6-Amino-2-methoxy-3-pyridyl)-1-methyl-pyrrolo[2,3-b]pyridin-2-yl]methyl]-4-piperidyl]-N,N-bis(trideuteriomethyl)benzamide [Example 1k44] | 25.6 | – | Eotaxin-3 Emax (%) ([1]; human whole blood, 400 pM recombinant human IL-4, 48 h, Emax provided for compounds with <80% Emax, geometric mean): 77%
2 | 4-[1-[[4-(6-Amino-2-methyl-3-pyridyl)-1-methyl-pyrrolo[2,3-b]pyridin-2-yl]methyl]-4-piperidyl]-N,N-dimethyl-benzamide [Example 1k12] | 20.1 | – | EC50 ([1]; human whole blood, 400 pM recombinant human IL-4, 48 h, EC50 provided for compounds with >80% Emax, geometric mean): 15700 nM
3 | CNc1ccc(-c2ccnc3c2cc([C@@H](C)N2CCC(c4ccc(C(=O)N(C)C)cc4)CC2)n3C)cn1 (single isomer, unassigned) [Example 1af8] | 14.6 | 369 | –
4 | C[C@@H]1C[C@H](c2ccc(C(=O)N(C)C)cc2)CCN1Cc1cc2c(-c3ccc(N)cn3)ccnc2n1C (single isomer, unassigned) [Example 1q1] | 18.1 | 370 | –
5 | C[C@@H]1C[C@H](c2ccc(C(=O)N(C)C)cc2)CCN1Cc1cc2c(-c3ccc(N)nc3C#N)ccnc2n1C (single isomer, unassigned) [Example 1q4] | 18.4 | 138 | –
6 | C[C@H]1C[C@@H](c2ccc(C(=O)N(C)C)cc2)CCN1Cc1cc2c(-c3ccc(N)nc3C#N)ccnc2n1C (single isomer, unassigned) [Example 1q5] | 57.4 | 651 | –
7 | C[C@H]1C[C@@H](c2ccc(C(=O)N(C)C)cc2)CCN1Cc1cc2c(-c3ccc(N)cn3)ccnc2n1C (single isomer, unassigned) [Example 1q6] | 47.4 | 3080 | –
8 | CNc1ccc(-c2ccnc3c2cc(CN2CC[C@H](c4ccc(C(=O)N(C)C)cc4)[C@H](F)C2)n3C)cn1 (stereo in doubt) [Example 1s28, N,N-dimethyl-4-[(3S,4R)-3-fluoro-1-[[1-methyl-4-[6-(methylamino)-3-pyridyl]pyrrolo[2,3-b]pyridin-2-yl]methyl]-4-piperidyl]benzamide] | 20.6 | – | Emax ([1]; Homo sapiens): 76.4%
9 | C[C@H](c1cc2c(-c3ccc(N)nc3)ccnc2n1C)N1CCC(c2ccc(C(=O)N(C)C)cc2)CC1 [Example 1af12, (R)-4-(1-(1-(4-(6-aminopyridin-3-yl)-1-methyl-1H-pyrrolo[2,3-b]pyridin-2-yl)ethyl)piperidin-4-yl)-N,N-dimethylbenzamide] | 12.9 | 246 | –
10 | C[C@H](c1cc2c(-c3ccc(N)nc3C#N)ccnc2n1C)N1CCC(c2ccc(C(=O)N(C)C)cc2)CC1 [Example 1af14, (R)-4-(1-(1-(4-(6-amino-2-cyanopyridin-3-yl)-1-methyl-1H-pyrrolo[2,3-b]pyridin-2-yl)ethyl)piperidin-4-yl)-N,N-dimethylbenzamide] | 18.5 | 135 | –
11 | Cc1cc(C(=O)N(C)C)ccc1C1CCN([C@H](C)c2cc3c(-c4ccc(N)cn4)ccnc3n2C)CC1 [Example 1af18, (R)-4-(1-(1-(4-(5-aminopyridin-2-yl)-1-methyl-1H-pyrrolo[2,3-b]pyridin-2-yl)ethyl)piperidin-4-yl)-N,N,3-trimethylbenzamide] | 31.4 | 2910 | –
12 | C[C@H](c1cc2c(-c3ccc(N)cn3)ccnc2n1C)N1CC=C(c2ccc(C(=O)N(C)C)cc2)CC1 [Example 1af20, (R)-4-(1-(1-(4-(5-aminopyridin-2-yl)-1-methyl-1H-pyrrolo[2,3-b]pyridin-2-yl)ethyl)-1,2,3,6-tetrahydropyridin-4-yl)-N,N-dimethylbenzamide] | 40.4 | – | Emax ([1]; Homo sapiens): 76.7%
13 | [2H]C([2H])([2H])N(C(=O)c1ccc(C2=CCN([C@H](C)c3cc4c(-c5ccc(N)nc5C#N)ccnc4n3C)CC2)c(C)c1)C([2H])([2H])[2H] [Example 1af26, (R)-4-(1-(1-(4-(6-amino-2-cyanopyridin-3-yl)-1-methyl-1H-pyrrolo[2,3-b]pyridin-2-yl)ethyl)-1,2,3,6-tetrahydropyridin-4-yl)-3-methyl-N,N-bis(methyl-d3)benzamide] | 20 | 65.4 | –
14 | [2H]C([2H])([2H])N(C(=O)c1ccc(C2CCN([C@H](C)c3cc4c(-c5ccc(N)cn5)ccnc4n3C)CC2)cc1)C([2H])([2H])[2H] [Example 1af36, (R)-4-(1-(1-(4-(5-aminopyridin-2-yl)-1-methyl-1H-pyrrolo[2,3-b]pyridin-2-yl)ethyl)piperidin-4-yl)-N,N-bis(methyl-d3)benzamide] | 15.7 | 404 | –
15 | [2H]C([2H])([2H])N(C(=O)c1ccc(C2CCN([C@@H](C)c3cc4c(-c5ccc(N)nc5C#N)ccnc4n3C)CC2)c(C)c1)C([2H])([2H])[2H] [Example 1af37, (S)-4-(1-(1-(4-(6-Amino-2-cyanopyridin-3-yl)-1-methyl-1H-pyrrolo[2,3-b]pyridin-2-yl)ethyl)piperidin-4-yl)-3-methyl-N,N-bis(methyl-d3)benzamide] | 57.7 | 699 | –
16 | CNc1ccc(-c2ccnc3c2cc([C@H](C)N2CCC(c4ccc(C(=O)N(C)C)cc4)CC2)n3C)c(C#N)n1 [Example 1af39, (S)-4-(1-(1-(4-(2-xyano-6-(methylamino)pyridin-3-yl)-1-methyl-1H-pyrrolo-[2,3-b]pyridin-2-yl)ethyl)piperidin-4-yl)-N,N-dimethylbenzamide] | 32.7 | 115 | –
17 | CN(C)C(=O)c1cc(F)c(C2=CCN(Cc3cc4c(-c5ccc(N)nc5)ccnc4n3C)CC2)c(C2CC2)c1 [Example 1z35, 4-(1-((4-(6-aminopyridin-3-yl)-1-methyl-1H-pyrrolo[2,3-b]pyridin-2-yl)methyl)-1,2,3,6-tetrahydropyridin-4-yl)-3-cyclopropyl-5-fluoro-N,N-dimethylbenzamide] | – | 81.8 | –
18 | CNc1ccc(-c2ccnc3c2cc(C(C)N2CC=C(c4c(C)cc(C(=O)N(C)C)cc4F)CC2)n3C)cn1 (stereo not drawn) [Example 1z36, 3-fluoro-N,N,5-trimethyl-4-(1-(1-(1-methyl-4-(6-(methylamino)pyridin-3-yl)-1H-pyrrolo[2,3-b]pyridin-2-yl)ethyl)-1,2,3,6-tetrahydropyridin-4-yl)benzamide] | – | 38.6 | –
19 | CNc1ccc(-c2ccnc3c2cc([C@H](C)N2CC=C(c4c(C)cc(C(=O)N(C)C)cc4F)CC2)n3C)cn1 [Example 1z37, (S)-3-fluoro-N,N,5-trimethyl-4-(1-(1-(1-methyl-4-(6-(methylamino)pyridin-3-yl)-1H-pyrrolo[2,3-b]pyridin-2-yl)ethyl)-1,2,3,6-tetrahydropyridin-4-yl)benzamide] | – | 439 | –
20 | CNc1ccc(-c2ccnc3c2cc([C@@H](C)N2CC=C(c4c(C)cc(C(=O)N(C)C)cc4F)CC2)n3C)cn1 [Example 1z38, (R)-3-fluoro-N,N,5-trimethyl-4-(1-(1-(1-methyl-4-(6-(methyl-amino)pyridin-3-yl)-1H-pyrrolo[2,3-b]pyridin-2-yl)ethyl)-1,2,3,6-tetrahydropyridin-4-yl)benzamide] | – | 12.9 | –
21 | CNc1ccc(-c2ccnc3c2cc(C(C)N2CC=C(c4c(C)cc(C(=O)N(C)C)cc4F)CC2)n3C)nc1 (stereo not drawn) [Example 1z39, 3-fluoro-N,N,5-trimethyl-4-(1-(1-(1-methyl-4-(5-(methylamino)pyridin-2-yl)-1H-pyrrolo[2,3-b]pyridin-2-yl)ethyl)-1,2,3,6-tetrahydropyridin-4-yl)benzamide] | – | 301 | –
22 | CNc1ccc(-c2ccnc3c2cc([C@H](C)N2CC=C(c4c(C)cc(C(=O)N(C)C)cc4F)CC2)n3C)nc1 [Example 1z40, (S)-3-fluoro-N,N,5-trimethyl-4-(1-(1-(1-methyl-4-(5-(methylamino)pyridin-2-yl)-1H-pyrrolo[2,3-b]pyridin-2-yl)ethyl)-1,2,3,6-tetrahydropyridin-4-yl)benzamide] | – | 3290 | –
23 | CNc1ccc(-c2ccnc3c2cc([C@@H](C)N2CC=C(c4c(C)cc(C(=O)N(C)C)cc4F)CC2)n3C)nc1 [Example 1z41, (R)-3-fluoro-N,N,5-trimethyl-4-(1-(1-(1-methyl-4-(5-(methyl-amino)pyridin-2-yl)-1H-pyrrolo[2,3-b]pyridin-2-yl)ethyl)-1,2,3,6-tetrahydropyridin-4-yl)benzamide] | – | 110 | –
24 | CN(C)C(=O)c1cc(F)c(C2=CCN(Cc3cc4c(-c5ccc(N)nc5C#N)ccnc4n3C)CC2)c(F)c1 [Example 1z42, 4-(1-((4-(6-amino-2-cyanopyridin-3-yl)-1-methyl-1H-pyrrolo[2,3-b]pyridin-2-yl)methyl)-1,2,3,6-tetrahydropyridin-4-yl)-3,5-difluoro-N,N-dimethylbenzamide] | – | 97.3 | –
25 | [2H]C([2H])([2H])N(C(=O)c1cc(C)c(C2=CCN([C@@H](C)c3cc4c(-c5ccc(NC)nn5)ccnc4n3C)CC2)c(F)c1)C([2H])([2H])[2H] [Example 1z44, (S)-3-fluoro-5-methyl-N,N-bis(methyl-d3)-4-(1-(1-(1-methyl-4-(6-(methylamino)-pyridazin-3-yl)-1H-pyrrolo[2,3-b]pyridin-2-yl)ethyl)-1,2,3,6-tetrahydropyridin-4-yl)benzamide] | – | 39.5 | –
26 | CN(C)C(=O)c1ccc(C2=CCN(Cc3cc4c(-c5ccc(N)nc5)ccnc4n3C)CC2)c(OC(F)(F)F)c1 [Example 1z45, 4-(1-((4-(6-aminopyridin-3-yl)-1-methyl-1H-pyrrolo[2,3-b]pyridin-2-yl)methyl)-1,2,3,6-tetrahydropyridin-4-yl)-N,N-dimethyl-3-(trifluoromethoxy)benzamide] | – | 798 | –
